Measured values as given in patent US9707229B2, “Compositions and methods for treating an infection” (CMPD LICENSING, LLC, priority 2015, dated 2017).

Legend:
Format in all cases: cell-based
[1] = system: Acinetobacter lwoffii; assay: Expected efficacy of antibiotic agents; settings: Gram: neg
[2] = system: Staphylococcus aureus (MSSA); assay: Expected efficacy of antibiotic agents; settings: Gram: pos
[3] = system: Clostridium difficile; assay: Expected efficacy of antibiotic agents; settings: Gram: anaer
[4] = system: Enterobacter aerogenes; assay: Expected efficacy of antibiotic agents; settings: Gram: neg
[5] = system: Acinetobacter calcoaceticus; assay: Expected efficacy of antibiotic agents; settings: Gram: neg
[6] = system: Shigella dysenteriae; assay: Expected efficacy of antibiotic agents; settings: Gram: neg
[7] = system: Streptococcus pyogenes; assay: Expected efficacy of antibiotic agents; settings: Gram: pos
[8] = system: Chlamydia trachomatis; assay: Expected efficacy of antibiotic agents; settings: Gram: n/a
[9] = system: Brucella species
[10] = system: Staphylococcus epidermidis; assay: Expected efficacy of antibiotic agents; settings: Gram: pos
[11] = system: Salmonella typhi; assay: Expected efficacy of antibiotic agents; settings: Gram: neg
[12] = system: Corynebacterium jeikeium; assay: Expected efficacy of antibiotic agents; settings: Gram: pos
[13] = system: Enterococcus faecalis; assay: Expected efficacy of antibiotic agents; settings: Gram: pos
[14] = system: Francisella tularensis
[15] = system: Bordetella pertussis; assay: Expected efficacy of antibiotic agents; settings: Gram: neg
[16] = system: Escherichia coli; assay: Expected efficacy of antibiotic agents; settings: Gram: neg
[17] = system: Neisseria meningitidis; assay: Expected efficacy of antibiotic agents; settings: Gram: neg
[18] = system: Pseudomonas aeruginosa; assay: Expected efficacy of antibiotic agents; settings: Gram: neg
[19] = system: Bartonella bacilliformis; assay: Expected efficacy of antibiotic agents; settings: Gram: neg
[20] = system: Clostridium perfringens
[21] = system: Citrobacter diversus; assay: Expected efficacy of antibiotic agents; settings: Gram: neg
[22] = system: Neisseria gonorrhoeae; assay: Expected efficacy of antibiotic agents; settings: Gram: neg
[23] = system: Enterococcus faecium; assay: Expected efficacy of antibiotic agents; settings: Gram: pos
[24] = system: Peptostreptococcus; assay: Expected efficacy of antibiotic agents; settings: Gram: pos
[25] = system: Providencia stuartii; assay: Expected efficacy of antibiotic agents; settings: Gram: neg
[26] = system: Enterobacter cloacae; assay: Expected efficacy of antibiotic agents; settings: Gram: neg
[27] = system: Mycoplasma pneumoniae; assay: Expected efficacy of antibiotic agents; settings: Gram: n/a
[28] = system: Campylobacter jejuni; assay: Expected efficacy of antibiotic agents; settings: Gram: neg
[29] = system: Methicillin resistant staph aureus (MRSA); assay: Expected efficacy of antibiotic agents; settings: Gram: pos
[30] = system: Klebsiella oxytoca; assay: Expected efficacy of antibiotic agents; settings: Gram: neg
[31] = system: Diphtheroids; assay: Expected efficacy of antibiotic agents; settings: Gram: pos
[32] = system: Viridans group streptococci; assay: Expected efficacy of antibiotic agents; settings: Gram: pos
[33] = system: Haemophilus ducreyi; assay: Expected efficacy of antibiotic agents; settings: Gram: neg
[34] = system: Shigella boydii; assay: Expected efficacy of antibiotic agents; settings: Gram: neg
[35] = system: Corynebacterium urealyticum; assay: Expected efficacy of antibiotic agents; settings: Gram: pos
[36] = system: Vibrio cholerae; assay: Expected efficacy of antibiotic agents; settings: Gram: neg
[37] = system: Bacteroides fragilis; assay: Expected efficacy of antibiotic agents; settings: Gram: anaer
[38] = system: Streptococcus agalactiae; assay: Expected efficacy of antibiotic agents; settings: Gram: pos
[39] = system: Moraxella catarrhalis; assay: Expected efficacy of antibiotic agents; settings: Gram: neg
[40] = system: Shigella flexneri; assay: Expected efficacy of antibiotic agents; settings: Gram: neg
[41] = system: Pseudomonas fluorescens; assay: Expected efficacy of antibiotic agents; settings: Gram: neg
[42] = system: Acinetobacter baumannii; assay: Expected efficacy of antibiotic agents; settings: Gram: neg
[43] = system: Enterobacter sakazakii; assay: Expected efficacy of antibiotic agents; settings: Gram: neg
[44] = system: Chlamydia pneumoniae; assay: Expected efficacy of antibiotic agents; settings: Gram: n/a
[45] = system: Morganella morganii; assay: Expected efficacy of antibiotic agents; settings: Gram: neg
[46] = system: Chlamydia psittaci
[47] = system: Shigella sonnei; assay: Expected efficacy of antibiotic agents; settings: Gram: neg
[48] = system: Klebsiella (Calymmatobacterium) granulomatis; assay: Expected efficacy of antibiotic agents; settings: Gram: neg
[49] = system: Haemophilus parainfluenzae; assay: Expected efficacy of antibiotic agents; settings: Gram: neg
[50] = system: Legionella pneumophila
[51] = system: Citrobacter freundii; assay: Expected efficacy of antibiotic agents; settings: Gram: neg
[52] = system: Providencia rettgeri; assay: Expected efficacy of antibiotic agents; settings: Gram: neg
[53] = system: Streptococcus pneumoniae; assay: Expected efficacy of antibiotic agents; settings: Gram: pos
[54] = system: Haemophilus influenzae; assay: Expected efficacy of antibiotic agents; settings: Gram: neg
[55] = system: Rickettsiae
[56] = system: Yersinia pestis
[57] = system: Klebsiella pneumoniae; assay: Expected efficacy of antibiotic agents; settings: Gram: neg
[58] = system: Proteus mirabilis; assay: Expected efficacy of antibiotic agents; settings: Gram: neg
[59] = system: Serratia marcescens; assay: Expected efficacy of antibiotic agents; settings: Gram: neg
[60] = system: Proteus vulgaris; assay: Expected efficacy of antibiotic agents; settings: Gram: neg
[61] = system: Aspergillus flavus; assay: Expected efficacy of antifungal agents
[62] = system: Histoplasma capsulatum; settings: expected efficacy
[63] = system: Aspergillus fumigatus; assay: Expected efficacy of antifungal agents
[64] = system: Coccidioides immitis; settings: expected efficacy
[65] = system: Candida species; assay: Expected efficacy of antifungal agents
[66] = system: Blastomyces dermatitidis; assay: Expected efficacy of antifungal agents
[67] = system: Cryptococcus neoformans; assay: Expected efficacy of antifungal agents

## CN[C@H](CC(C)C)C(=O)N[C@H]1C(=O)N[C@@H](CC(N)=O)C(=O)N[C@H]2C(=O)N[C@H]3C(=O)N[C@H](C(=O)N[C@H](C(=O)O)c4cc(O)cc(O)c4-c4cc3ccc4O)[C@H](O)c3ccc(c(Cl)c3)Oc3cc2cc(c3O[C@@H]2O[C@H](CO)[C@@H](O)[C@H](O)[C@H]2O[C@H]2C[C@](C)(N)[C@H](O)[C@H](C)O2)Oc2ccc(cc2Cl)[C@H]1O [Vancomycin]
[1]
  efficacy against Acinetobacter lwoffii: no
[2]
  efficacy against Staphylococcus aureus (MSSA): yes
[3]
  efficacy against Clostridium difficile: yes
[4]
  efficacy against Enterobacter aerogenes: no
[5]
  efficacy against Acinetobacter calcoaceticus: no
[6]
  efficacy against Shigella dysenteriae: no
[7]
  efficacy against Streptococcus pyogenes: yes
[8]
  efficacy against Chlamydia trachomatis: no
[9]
  efficacy against Brucella species: no
[10]
  efficacy against Staphylococcus epidermidis: yes
[11]
  efficacy against Salmonella typhi: no
[12]
  efficacy against Corynebacterium jeikeium: yes
[13]
  efficacy against Enterococcus faecalis: yes
[14]
  efficacy against Francisella tularensis: no
[15]
  efficacy against Bordetella pertussis: no
[16]
  efficacy against Escherichia coli: no
[17]
  efficacy against Neisseria meningitidis: no
[18]
  efficacy against Pseudomonas aeruginosa: no
[19]
  efficacy against Bartonella bacilliformis: no
[20]
  efficacy against Clostridium perfringens: no
[21]
  efficacy against Citrobacter diversus: no
[22]
  efficacy against Neisseria gonorrhoeae: no
[23]
  efficacy against Enterococcus faecium: yes, not VRE
[24]
  efficacy against Peptostreptococcus: yes
[25]
  efficacy against Providencia stuartii: no
[26]
  efficacy against Enterobacter cloacae: no
[27]
  efficacy against Mycoplasma pneumoniae: no
[28]
  efficacy against Campylobacter jejuni: no
[29]
  efficacy against Methicillin resistant staph aureus (MRSA): yes
[30]
  efficacy against Klebsiella oxytoca: no
[31]
  efficacy against Diphtheroids: yes
[32]
  efficacy against Viridans group streptococci: yes
[33]
  efficacy against Haemophilus ducreyi: no
[34]
  efficacy against Shigella boydii: no
[35]
  efficacy against Corynebacterium urealyticum: yes
[36]
  efficacy against Vibrio cholerae: no
[37]
  efficacy against Bacteroides fragilis: no
[38]
  efficacy against Streptococcus agalactiae: yes
[39]
  efficacy against Moraxella catarrhalis: no
[40]
  efficacy against Shigella flexneri: no
[41]
  efficacy against Pseudomonas fluorescens: no
[42]
  efficacy against Acinetobacter baumannii: no
[43]
  efficacy against Enterobacter sakazakii: no
[44]
  efficacy against Chlamydia pneumoniae: no
[45]
  efficacy against Morganella morganii: no
[46]
  efficacy against Chlamydia psittaci: no
[47]
  efficacy against Shigella sonnei: no
[48]
  efficacy against Klebsiella (Calymmatobacterium) granulomatis: no
[49]
  efficacy against Haemophilus parainfluenzae: no
[50]
  efficacy against Legionella pneumophila: no
[51]
  efficacy against Citrobacter freundii: no
[52]
  efficacy against Providencia rettgeri: no
[53]
  efficacy against Streptococcus pneumoniae: yes
[54]
  efficacy against Haemophilus influenzae: no
[55]
  efficacy against Rickettsiae: no
[56]
  efficacy against Yersinia pestis: no
[57]
  efficacy against Klebsiella pneumoniae: no
[58]
  efficacy against Proteus mirabilis: no
[59]
  efficacy against Serratia marcescens: no
[60]
  efficacy against Proteus vulgaris: no

## OC(Cn1cncn1)(Cn1cncn1)c1ccc(F)cc1F [Fluconazole]
[61]
  efficacy against Aspergillus flavus: yes
[62]
  efficacy against Histoplasma capsulatum: yes
[63]
  efficacy against Aspergillus fumigatus: yes
[64]
  efficacy against Coccidioides immitis: yes
[65]
  efficacy against Candida species: yes
[66]
  efficacy against Blastomyces dermatitidis: yes
[67]
  efficacy against Cryptococcus neoformans: yes
